In ChEMBL document CHEMBL4251595, “Green approach for the synthesis of thiophenyl pyrazoles and isoxazoles by adopting 1,3-dipolar cycloaddition methodology and their antimicrobial activity” (2018):
≈ marks a conversion by molar mass, not a printed value.

Key:
Assay type in all cases: functional
[1] = tested on: Staphylococcus aureus; test: Antimicrobial activity against Staphylococcus aureus after 24 hrs by broth dilution test
[2] = tested on: Bacillus subtilis; test: Antimicrobial activity against Bacillus subtilis assessed as zone of inhibition at 75 ug/well after 24 hrs by agar well diffusion method; details: read-out: DIZ
[3] = tested on: Penicillium chrysogenum; test: Fungicidal activity against Penicillium chrysogenum incubated for 48 hrs followed by replating on PDA and incubated for 48 hrs by broth dilution test
[4] = tested on: Aspergillus niger; test: Antifungal activity against Aspergillus niger assessed as zone of inhibition at 100 ug/well after 48 hrs by agar well diffusion method; details: read-out: DIZ
[5] = tested on: Klebsiella pneumoniae; test: Antimicrobial activity against Klebsiella pneumoniae assessed as zone of inhibition at 100 ug/well after 24 hrs by agar well diffusion method; details: read-out: DIZ
[6] = tested on: Klebsiella pneumoniae; test: Bactericidal activity against Klebsiella pneumoniae incubated for 24 hrs followed by replating on sterile nutrient broth and incubated for 24 hrs by broth dilution test
[7] = tested on: Klebsiella pneumoniae; test: Antimicrobial activity against Klebsiella pneumoniae assessed as zone of inhibition at 50 ug/well after 24 hrs by agar well diffusion method; details: read-out: DIZ
[8] = tested on: Penicillium chrysogenum; test: Antifungal activity against Penicillium chrysogenum assessed as zone of inhibition at 75 ug/well after 48 hrs by agar well diffusion method; details: read-out: DIZ
[9] = tested on: Aspergillus niger; test: Fungicidal activity against Aspergillus niger incubated for 48 hrs followed by replating on PDA and incubated for 48 hrs by broth dilution test
[10] = tested on: Bacillus subtilis; test: Antimicrobial activity against Bacillus subtilis assessed as zone of inhibition at 100 ug/well after 24 hrs by agar well diffusion method; details: read-out: DIZ
[11] = tested on: Aspergillus niger; test: Antifungal activity against Aspergillus niger assessed as zone of inhibition at 50 ug/well after 48 hrs by agar well diffusion method; details: read-out: DIZ
[12] = tested on: Pseudomonas aeruginosa; test: Antimicrobial activity against Pseudomonas aeruginosa assessed as zone of inhibition at 75 ug/well after 24 hrs by agar well diffusion method; details: read-out: DIZ
[13] = tested on: Penicillium chrysogenum; test: Antifungal activity against Penicillium chrysogenum assessed as zone of inhibition at 100 ug/well after 48 hrs by agar well diffusion method; details: read-out: DIZ
[14] = tested on: Pseudomonas aeruginosa; test: Antimicrobial activity against Pseudomonas aeruginosa assessed as zone of inhibition at 50 ug/well after 24 hrs by agar well diffusion method; details: read-out: DIZ
[15] = tested on: Aspergillus niger; test: Antifungal activity against Aspergillus niger assessed as zone of inhibition at 75 ug/well after 48 hrs by agar well diffusion method; details: read-out: DIZ
[16] = tested on: Staphylococcus aureus; test: Bactericidal activity against Staphylococcus aureus incubated for 24 hrs followed by replating on sterile nutrient broth and incubated for 24 hrs by broth dilution test
[17] = tested on: Staphylococcus aureus; test: Antimicrobial activity against Staphylococcus aureus assessed as zone of inhibition at 50 ug/well after 24 hrs by agar well diffusion method; details: read-out: DIZ
[18] = tested on: Penicillium chrysogenum; test: Antifungal activity against Penicillium chrysogenum assessed as zone of inhibition at 50 ug/well after 48 hrs by agar well diffusion method; details: read-out: DIZ
[19] = tested on: Aspergillus niger; test: Antifungal activity against Aspergillus niger after 48 hrs by broth dilution test
[20] = tested on: Staphylococcus aureus; test: Antimicrobial activity against Staphylococcus aureus assessed as zone of inhibition at 75 ug/well after 24 hrs by agar well diffusion method; details: read-out: DIZ
[21] = tested on: Klebsiella pneumoniae; test: Antimicrobial activity against Klebsiella pneumoniae assessed as zone of inhibition at 75 ug/well after 24 hrs by agar well diffusion method; details: read-out: DIZ
[22] = tested on: Bacillus subtilis; test: Antimicrobial activity against Bacillus subtilis after 24 hrs by broth dilution test
[23] = tested on: Pseudomonas aeruginosa; test: Bactericidal activity against Pseudomonas aeruginosa incubated for 24 hrs followed by replating on sterile nutrient broth and incubated for 24 hrs by broth dilution test
[24] = tested on: Bacillus subtilis; test: Antimicrobial activity against Bacillus subtilis assessed as zone of inhibition at 50 ug/well after 24 hrs by agar well diffusion method; details: read-out: DIZ
[25] = tested on: Pseudomonas aeruginosa; test: Antimicrobial activity against Pseudomonas aeruginosa after 24 hrs by broth dilution test
[26] = tested on: Penicillium chrysogenum; test: Antifungal activity against Penicillium chrysogenum after 48 hrs by broth dilution test
[27] = tested on: Klebsiella pneumoniae; test: Antimicrobial activity against Klebsiella pneumoniae after 24 hrs by broth dilution test
[28] = tested on: Staphylococcus aureus; test: Antimicrobial activity against Staphylococcus aureus assessed as zone of inhibition at 100 ug/well after 24 hrs by agar well diffusion method; details: read-out: DIZ
[29] = tested on: Bacillus subtilis; test: Bactericidal activity against Bacillus subtilis incubated for 24 hrs followed by replating on sterile nutrient broth and incubated for 24 hrs by broth dilution test
[30] = tested on: Pseudomonas aeruginosa; test: Antimicrobial activity against Pseudomonas aeruginosa assessed as zone of inhibition at 100 ug/well after 24 hrs by agar well diffusion method; details: read-out: DIZ

MIC [1] | MIC [19] | SMILES | zone of inhibition at 75 µg/disc [2] | MFC [3] | zone of inhibition at 100 µg/disc [4] | zone of inhibition at 100 µg/disc [5] | MBC [6] | zone of inhibition at 50 µg/disc [7] | zone of inhibition at 75 µg/disc [8] | MFC [9] | zone of inhibition at 100 µg/disc [10] | zone of inhibition at 50 µg/disc [11] | zone of inhibition at 75 µg/disc [12] | zone of inhibition at 100 µg/disc [13] | zone of inhibition at 50 µg/disc [14] | zone of inhibition at 75 µg/disc [15] | MBC [16] | zone of inhibition at 50 µg/disc [17] | zone of inhibition at 50 µg/disc [18] | zone of inhibition at 75 µg/disc [20] | other results
50 µg/mL (≈ 110 µM) | 6.25 µg/mL (≈ 13.7 µM) | O=C(NS(=O)(=O)c1c(-c2ccccc2)noc1-c1ccc([N+](=O)[O-])cc1)c1cccs1 | 38 mm | 200 µg/mL (≈ 439 µM) | 38 mm | 36 mm | 100 µg/mL (≈ 220 µM) | 31 mm | 28 mm | 12.5 µg/mL (≈ 27.4 µM) | 42 mm | 33 mm | 23 mm | 30 mm | 21 mm | 35 mm | 200 µg/mL (≈ 439 µM) | 25 mm | 25 mm | 28 mm | zone of inhibition at 75 µg/disc [21]: 34 mm; MIC [22]: 6.25 µg/mL (≈ 13.7 µM); MBC [23]: 50 µg/mL (≈ 110 µM); zone of inhibition at 50 µg/disc [24]: 34 mm; MIC [25]: 12.5 µg/mL (≈ 27.4 µM); MIC [26]: 50 µg/mL (≈ 110 µM); MIC [27]: 25 µg/mL (≈ 54.9 µM); zone of inhibition at 100 µg/disc [28]: 30 mm; MBC [29]: 12.5 µg/mL (≈ 27.4 µM); zone of inhibition at 100 µg/disc [30]: 26 mm
100 µg/mL (≈ 296 µM) | 25 µg/mL (≈ 73.9 µM) | O=C(NS(=O)(=O)/C=C/c1ccc([N+](=O)[O-])cc1)c1cccs1 | 32 mm | > 200 µg/mL | 28 mm | 31 mm | 200 µg/mL (≈ 591 µM) | 26 mm | 24 mm | 100 µg/mL (≈ 296 µM) | 36 mm | 23 mm | 19 mm | 27 mm | 16 mm | 25 mm | > 200 µg/mL | 19 mm | 22 mm | 22 mm | zone of inhibition at 75 µg/disc [21]: 30 mm; MIC [22]: 12.5 µg/mL (≈ 36.9 µM); MBC [23]: 100 µg/mL (≈ 296 µM); zone of inhibition at 50 µg/disc [24]: 30 mm; MIC [25]: 25 µg/mL (≈ 73.9 µM); MIC [26]: 100 µg/mL (≈ 296 µM); MIC [27]: 50 µg/mL (≈ 148 µM); zone of inhibition at 100 µg/disc [28]: 25 mm; MBC [29]: 50 µg/mL (≈ 148 µM); zone of inhibition at 100 µg/disc [30]: 21 mm
50 µg/mL (≈ 102 µM) | 6.25 µg/mL (≈ 12.8 µM) | O=C(NS(=O)(=O)c1c(-c2ccccc2)noc1-c1ccc([N+](=O)[O-])cc1)c1ccc(Cl)s1 | 39 mm | 200 µg/mL (≈ 408 µM) | 40 mm | 38 mm | 100 µg/mL (≈ 204 µM) | 32 mm | 29 mm | 12.5 µg/mL (≈ 25.5 µM) | 44 mm | 35 mm | 25 mm | 33 mm | 23 mm | 37 mm | 200 µg/mL (≈ 408 µM) | 27 mm | 27 mm | 30 mm | zone of inhibition at 75 µg/disc [21]: 35 mm; MIC [22]: 6.25 µg/mL (≈ 12.8 µM); MBC [23]: 50 µg/mL (≈ 102 µM); zone of inhibition at 50 µg/disc [24]: 37 mm; MIC [25]: 12.5 µg/mL (≈ 25.5 µM); MIC [26]: 50 µg/mL (≈ 102 µM); MIC [27]: 25 µg/mL (≈ 51 µM); zone of inhibition at 100 µg/disc [28]: 32 mm; MBC [29]: 12.5 µg/mL (≈ 25.5 µM); zone of inhibition at 100 µg/disc [30]: 28 mm
